Measurements as given in BindingDB's records for patent US10100058 (Gilead Sciences, 2018).

Molecular target: Calcium/calmodulin-dependent protein kinase type II subunit delta (Homo sapiens, UniProt Q13557)
Test: CaMKII delta Biochemical Assay
Method: The biochemical activity of recombinant CaMKIIδ was measured by monitoring the phosphorylation of a target peptide using Homogenous Time Resolved Fluorescence (HTRF) technology from CisBio Bioassays.

Sequence of Calcium/calmodulin-dependent protein kinase type II subunit delta (Q13557 whole entry): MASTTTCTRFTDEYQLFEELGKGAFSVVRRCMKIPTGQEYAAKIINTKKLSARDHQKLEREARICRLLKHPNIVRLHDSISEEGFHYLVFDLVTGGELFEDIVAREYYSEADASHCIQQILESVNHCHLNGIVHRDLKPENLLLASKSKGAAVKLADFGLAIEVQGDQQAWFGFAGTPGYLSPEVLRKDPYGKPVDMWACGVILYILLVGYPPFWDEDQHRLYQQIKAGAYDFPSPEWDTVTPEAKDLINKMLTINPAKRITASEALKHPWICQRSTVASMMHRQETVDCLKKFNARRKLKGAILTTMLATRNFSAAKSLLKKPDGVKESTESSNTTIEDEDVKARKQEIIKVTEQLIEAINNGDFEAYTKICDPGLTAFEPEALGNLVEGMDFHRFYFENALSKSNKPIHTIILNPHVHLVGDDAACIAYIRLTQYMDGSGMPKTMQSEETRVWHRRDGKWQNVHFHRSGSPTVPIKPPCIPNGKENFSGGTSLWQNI

SMILES	IC50
COC1CN(c2cc(C(=O)N3CC[C@H](N)C3)cc(-c3cnn4ccc(-c5cccs5)nc34)n2)C1 [US10100058, Example 327]	9.25 nM
CCN(CC)[C@@H](C)CNC(=O)c1cc(-c2cnn3ccc(-c4cccs4)nc23)nc(N2CC(NS(=O)(=O)Cc3ccon3)C2)c1 [US10100058, Example 175]	0.24 nM
CCN(CC)[C@@H](CO)CNC(=O)c1ccnc(-c2cnn3ccc(-c4ccccc4)nc23)c1 [US10100058, Example 58]	3.35 nM
CN(CCn1ccnc1)c1cc(C(=O)N2CC3CCC(C2)NC3)cc(-c2cnn3ccc(-c4cccs4)nc23)n1 (stereo not drawn) [US10100058, Example 321]	9.11 nM
CC(C)(N)CNC(=O)c1ccnc(-c2cnn3ccc(-c4ccccc4)nc23)c1 [US10100058, Example 64]	99.9 nM
CCN(CC)[C@@H](C)CNC(=O)c1cc(OCCN(C)C)nc(-c2cnn3ccc(-c4cccs4)nc23)c1 [US10100058, Example 347]	0.1 nM
CCC(N)CNC(=O)c1ccnc(-c2cnn3ccc(-c4cccs4)nc23)c1 (stereo not drawn) [US10100058, Example 25]	8.62 nM
CCN(CC)[C@@H](C)CNC(=O)c1cc(-c2cnn3ccc(-c4cccs4)nc23)nc(N2CC[C@H]2C(=O)NCCO)c1 [US10100058, Example 297]	0.33 nM
